Assay results taken from patent publication US12128084B2, “Use of PAYCS in regulation of intestinal flora, metabolites, and brain neurotransmitters” (Sericulture and Agri-Food Research Institute, Guangdong …, priority 2022, dated 2024).

Columns and labels:
Assay type in all cases: in vivo
brain neurotransmitters = brain neurotransmitters of amnesic mice
[1] = test system: mice with amnesia induced by scopolamine; assay: behavioral test (jumping test, swimming test; training part and test part) in scopolamine-induced amnesic mice
Experimental: The mice were tested for a jumping test (FIG. 1A), swimming speed (FIG. 1), swimming distance (FIG. 1C), the number of crossings on the target platform (FIG. 1D), the number of crossings on the target quadrants (FIG. 1E), the escape latency and the error times (FIG. 1F) during the training. In the test part, the swimming distance, the swimming speed, number of crossings on target quadrant (FIG. 1G), the number of crossings on the target platform, and escape latency (H) were determined. In these figures, #: compared with the control group, P<0.05; compared with the control group, P<0.01; *: compared model group, P<0.05; **: compared with the model group, P<0.01.
FIG. 7 is an experiment designed to evaluate the effect of PAYCS-L (lower dose of SEQ ID NO: 1) and PAYCS-H (higher dose of SEQ ID NO: 1) on learning and memory function in mice with amnesia induced by scopolamine.

intestinal microflora = assay: 16S rRNA analysis of intestinal microflora of amnesic mice
Description: The symbols * and ** represent P<0.05 and P<0.01, respectively.

[2] = test system: IL-1β and TNF-α in liver and serum; assay: liver and serum inflammatory indexes of amnesic mice
[3] = test system: MDA, LDH, SOD, GP(x) in liver and serum; assay: liver and serum oxidation indexes of amnesic mice
fecal metabolites = fecal metabolites of amnesic mice
Description: The scores of variable importance in projection (VIP) for symbol ** and symbol *** are P<0.05, P<0.01, and P<0.001 respectively.

[4] = PAYCS-H (higher dose), scopolamine-induced amnesic mice
[5] = scopolamine-induced amnesic mice

## Pro-Ala-Tyr-Cys-Ser (PAYCS; sequence of the peptide ProAlaTyrCysSer)
Brain neurotransmitters; e.g. Ach, GABA, Glu, HisA, Kyn
  neurotransmitters: significantly up-regulated
Brain neurotransmitters; mouse, in vivo
  brain neurotransmitters in amnesic mice: regulatory effect
  tryptophan metabolism-related neurotransmitters in the brain: improves
[1]; PAYCS-H (0.4 g/kg bw, higher dose), 3 weeks of treatment, scopolamine-induced mouse model
  cognitive function in the test part of the behavioral test: better improvement
[1]; PAYCS-L (0.2 g/kg bw, lower dose), 3 weeks of treatment, scopolamine-induced mouse model
  memory enhancement in the training part of the behavioral test: better effect of memory enhancement
[1]; PAYCS-L (lower dose)
  memory deficits in amnesic mice: partially reverses
[1]; mouse, in vivo
  scopolamine-induced memory impairment in mice: remedies
Intestinal microflora; 16S rRNA analysis
  relative abundance of Cacteroidaceae: increased
  relative abundance of Prevotellaceae: increased
Intestinal microflora; PAYCS-H (higher dose)
  intestinal microorganisms: re-modulates
Intestinal microflora; PAYCS-L (lower dose)
  abundance of intestinal microorganism population in amnesic mice: reconstitutes
Intestinal microflora; PAYCS-L (lower dose), 16S rRNA analysis
  ratio of Bacteroidetes/Firmicutes: changed
[2]; PAYCS-H (higher dose)
  anti-inflammatory effect: good
  inflammatory stress in the liver and serum: reverses
[2]; [4]
  IL-1β in the liver: inhibit the increase
  TNF-α in the liver: inhibit the increase
[2]; PAYCS-L (lower dose), scopolamine-induced amnesic mice, only TNF-α
  content of TNF-α in the liver: reduces
[3]; PAYCS-H (higher dose)
  antioxidant effect: good
  oxidative stress in the liver and serum: reverses
[3]; mouse, in vivo
  liver and serum deficits: positive effect
[3]; [5]
  LDH level in serum: significantly reduce
  MDA level in serum: significantly reduce
  SOD content in the liver: significantly increase
Fecal metabolites; PAYCS-H (higher dose)
  fecal metabolites: re-modulates
Fecal metabolites; e.g. Panax notoginseng saponins and cholinergic acid
  memory-related metabolites: significantly up-regulated
Fecal metabolites; e.g. blumealactone C, thalictroidine, notoginsenoside M, 3a,7a,12b-trihydroxy-5b-cholanoic acid, sequiterpene lactone 326, helenalin, cholic acid
  memory-related metabolites: significantly up-regulated
Fecal metabolites; mouse, in vivo
  fecal metabolites in amnesic mice: regulatory effect
